From ChEMBL document CHEMBL1201862, “PubChem BioAssay data set” (2004) come the findings set out here.

By AC50 is commonly meant the midpoint of the concentration-response curve, whichever way the signal moves.

Data set [1] in a line: Luminescence Cell-Based Dose Retest to Confirm Inhibitors of Cancer Stem Cells. [Related pubchem assays (depositor defined):AID2717, AID2721]. Type of data set: functional. The settings on record: Homo sapiens.
In data set [2] the test system is Streptococcus sp. 'group A'. The data set can be described thus: Streptococcus pyogenes SK(-)GAS viability under kanamycin – luminescence, BacTiterGlo, confirmation, counter-screen for streptokinase expression inhibitor project, dose response (AID 1900). The class given is functional, organism-based.
The subject of a further data set is Streptococcus. As to the kind of experiment: GAS UMAA2166 growth inhibition – luminescence, BacTiterGlo, counter-screen for streptokinase expression inhibitor project, dose response (AID 1915).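 Also: potency for reduction of bacterial viability or growth.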 The class given is functional, organism-based. A general note: The purpose of a counterscreen is to sort out artefacts and off-target activity.
Data set [3] is described as follows: viability loss in HEK293T cells – cell-based, cherry-picks, cytotoxicity control for HIV Vif inhibitor project, dose response (AID 652208). The class given is functional.
Data set [4] can be described thus: mouse fibroblast viability loss – cell-based, cherry-pick samples, set 2, cytotoxicity control for T. cruzi growth inhibitor project, dose response (AID 651817). Type of data set: functional. The settings on record: NIH3T3.
The target of data set [5] is T1, Tyrosyl-DNA phosphodiesterase 2 (Homo sapiens, UniProt O95551).
T1 sequence (O95551 whole entry): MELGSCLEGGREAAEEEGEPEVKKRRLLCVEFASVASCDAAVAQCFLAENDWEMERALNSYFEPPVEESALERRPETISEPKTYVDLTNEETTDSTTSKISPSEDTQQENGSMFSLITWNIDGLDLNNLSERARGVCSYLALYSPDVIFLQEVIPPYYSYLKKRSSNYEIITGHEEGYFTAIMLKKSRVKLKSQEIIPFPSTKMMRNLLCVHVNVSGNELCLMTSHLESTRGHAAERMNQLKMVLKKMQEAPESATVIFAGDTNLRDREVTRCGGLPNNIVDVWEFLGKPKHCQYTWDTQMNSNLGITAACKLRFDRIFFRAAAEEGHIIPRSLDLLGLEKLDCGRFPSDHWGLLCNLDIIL
The data set can be described thus: potency against TDP2 phosphodiesterase activity – biochemical, epi absorbance, IC50, dose response (AID 743297).

For data set [6], the target named is T2, Replicative DNA helicase DnaB (Mycobacterium tuberculosis, UniProt P9WMR3).
T2 sequence (P9WMR3 whole entry): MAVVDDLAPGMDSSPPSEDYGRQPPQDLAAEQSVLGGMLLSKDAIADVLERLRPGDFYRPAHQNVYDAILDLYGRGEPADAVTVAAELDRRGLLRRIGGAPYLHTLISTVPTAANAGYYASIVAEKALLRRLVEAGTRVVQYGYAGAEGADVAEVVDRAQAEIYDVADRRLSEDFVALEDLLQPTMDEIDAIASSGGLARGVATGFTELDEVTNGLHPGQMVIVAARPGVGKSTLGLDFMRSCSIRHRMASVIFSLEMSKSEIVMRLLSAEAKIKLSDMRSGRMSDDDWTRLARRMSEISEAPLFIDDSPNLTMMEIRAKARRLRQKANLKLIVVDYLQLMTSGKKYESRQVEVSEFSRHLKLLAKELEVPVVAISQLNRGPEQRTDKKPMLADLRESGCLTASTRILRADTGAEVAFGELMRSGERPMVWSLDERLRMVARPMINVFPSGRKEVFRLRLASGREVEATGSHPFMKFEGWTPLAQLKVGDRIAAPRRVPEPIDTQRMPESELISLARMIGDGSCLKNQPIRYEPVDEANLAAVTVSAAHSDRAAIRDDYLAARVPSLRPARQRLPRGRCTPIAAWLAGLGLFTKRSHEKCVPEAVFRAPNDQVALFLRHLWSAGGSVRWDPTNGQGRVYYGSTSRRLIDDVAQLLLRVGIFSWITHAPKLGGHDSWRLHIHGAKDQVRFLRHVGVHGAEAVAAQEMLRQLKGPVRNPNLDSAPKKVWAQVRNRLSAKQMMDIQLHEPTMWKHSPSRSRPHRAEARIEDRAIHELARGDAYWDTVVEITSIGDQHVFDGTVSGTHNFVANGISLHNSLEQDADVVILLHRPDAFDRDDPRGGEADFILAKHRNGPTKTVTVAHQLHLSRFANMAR
As to the kind of experiment: DnaB intein splicing inhibitors, dose response, biochemical, cell-free fluorescence (AID 449749). Type of data set: functional.

Data set [7] has as its target T3, Sentrin-specific protease 8 (Homo sapiens, UniProt Q96LD8).
T3 sequence (Q96LD8 whole entry): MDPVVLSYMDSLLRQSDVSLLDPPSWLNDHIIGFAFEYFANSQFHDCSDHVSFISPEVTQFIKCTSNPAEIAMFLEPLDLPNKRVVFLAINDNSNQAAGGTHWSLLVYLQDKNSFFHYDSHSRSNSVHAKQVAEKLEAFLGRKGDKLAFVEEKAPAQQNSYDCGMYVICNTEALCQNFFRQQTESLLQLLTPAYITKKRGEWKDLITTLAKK
The class given is functional.

The nature of data set [8]: inhibition of ARNT PAS-B/TACC3 complex formation – biochemical, AlphaScreen, cherry-picked samples, confirmation (AID 651703).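 Also: His-tagged ARNT PAS-B domain paired with GST-TACC3 E629A dimer coactivator fragment; potency of inhibitors that break up the complex and lower AlphaScreen signal.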 The class given is functional, Homo sapiens. On the technique in general: In Alpha technology, singlet oxygen from a donor bead excites a nearby acceptor bead.
Data set [9] has as its target T4, RNA-binding protein pos-1 (Caenorhabditis elegans, UniProt G5EF15).
T4 sequence (G5EF15 whole entry): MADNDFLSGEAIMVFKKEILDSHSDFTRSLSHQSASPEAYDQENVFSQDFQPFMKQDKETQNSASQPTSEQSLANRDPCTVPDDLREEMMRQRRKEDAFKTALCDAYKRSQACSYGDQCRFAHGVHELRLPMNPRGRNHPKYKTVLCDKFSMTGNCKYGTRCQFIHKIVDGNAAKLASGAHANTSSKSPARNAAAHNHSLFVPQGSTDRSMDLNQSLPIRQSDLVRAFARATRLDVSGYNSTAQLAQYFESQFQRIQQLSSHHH
The data set can be described thus: disruptors of C. elegans POS-1 RNA interaction – biochemical, fluorescence polarization, dose response (AID 1964).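 Also: purified POS-1 fused to maltose binding protein made in E. coli; potency of compounds blocking POS-1 binding to fluorescent RNA.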 For orientation: Polarisation of emitted light reports the rotation of a fluorescent probe.

The target of data set [10] is T5, Zinc finger protein mex-5 (Caenorhabditis elegans, UniProt Q9XUB2).
T5 sequence (Q9XUB2 whole entry): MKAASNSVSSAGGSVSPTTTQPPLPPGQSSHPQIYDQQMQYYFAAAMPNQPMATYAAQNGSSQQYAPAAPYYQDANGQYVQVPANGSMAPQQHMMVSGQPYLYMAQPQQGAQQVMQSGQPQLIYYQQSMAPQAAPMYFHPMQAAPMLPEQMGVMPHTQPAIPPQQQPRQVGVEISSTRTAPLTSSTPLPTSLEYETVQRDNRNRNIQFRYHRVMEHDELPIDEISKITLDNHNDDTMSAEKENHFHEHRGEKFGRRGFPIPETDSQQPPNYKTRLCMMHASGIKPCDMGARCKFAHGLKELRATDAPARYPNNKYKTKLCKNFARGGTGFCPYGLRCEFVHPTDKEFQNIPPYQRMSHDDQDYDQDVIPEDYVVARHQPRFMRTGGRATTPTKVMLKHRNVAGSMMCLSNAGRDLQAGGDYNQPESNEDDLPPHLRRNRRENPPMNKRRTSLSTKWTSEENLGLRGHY
The data set can be described thus: potency of MEX-5 RNA-binding blockers – biochemical, C. elegans, fluorescence polarization, dose response (AID 1960).

The target in data set [11] is T3, Sentrin-specific protease 8. Type of data set: functional. This is another data set of the same source.
For a further data set, the target named is T6, Protein RecA (Mycobacterium tuberculosis, UniProt P9WHJ3).
T6 sequence (P9WHJ3 whole entry): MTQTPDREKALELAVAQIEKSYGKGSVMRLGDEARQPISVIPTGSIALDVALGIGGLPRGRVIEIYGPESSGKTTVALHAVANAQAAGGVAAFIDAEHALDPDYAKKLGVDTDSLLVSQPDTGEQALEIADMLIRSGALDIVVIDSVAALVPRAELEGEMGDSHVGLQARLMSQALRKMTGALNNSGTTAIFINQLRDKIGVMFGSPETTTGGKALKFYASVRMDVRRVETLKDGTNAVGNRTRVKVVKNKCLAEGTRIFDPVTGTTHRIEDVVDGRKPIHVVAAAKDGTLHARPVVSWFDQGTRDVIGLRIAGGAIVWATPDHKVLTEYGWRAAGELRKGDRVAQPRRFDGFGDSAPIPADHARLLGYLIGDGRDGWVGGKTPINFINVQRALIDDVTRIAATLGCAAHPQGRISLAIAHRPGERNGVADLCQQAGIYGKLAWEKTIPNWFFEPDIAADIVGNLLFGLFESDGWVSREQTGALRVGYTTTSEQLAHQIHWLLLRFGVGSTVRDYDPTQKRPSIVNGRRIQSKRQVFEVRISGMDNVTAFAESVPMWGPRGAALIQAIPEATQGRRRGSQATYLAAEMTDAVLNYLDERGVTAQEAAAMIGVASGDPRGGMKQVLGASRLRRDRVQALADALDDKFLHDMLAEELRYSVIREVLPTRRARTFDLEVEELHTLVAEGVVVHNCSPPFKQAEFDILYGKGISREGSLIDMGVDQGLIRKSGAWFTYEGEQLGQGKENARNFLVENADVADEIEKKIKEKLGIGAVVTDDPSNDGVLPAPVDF
The data set can be described thus: Fluorescence Cell-Free Homogeneous Dose Retest to Identify Inhibitors of RecA-Intein Splicing Activity. [Related pubchem assays (depositor defined):AID2097, AID2223, AID489010, AID492950]. The class given is functional.

Data set [12] can be described thus: off-target signal loss in HeLa-CEM21 co-culture – HeLa F-luc CTL cells, cherry-picked, counter-screen for HIV-1 Env fusion inhibitor project, dose response (AID 652040).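 Also: potency for signal decrease marking cytotoxic or nonspecific inhibition.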 The class given is functional, cell-based.
A further data set can be described thus: cells. Type of data set: functional, cell-based. The settings on record: HEK-CNG.
For the next data set, the target named is Cytochrome P450 2C9 (Homo sapiens, UniProt P11712).
Sequence of Cytochrome P450 2C9 (P11712 whole entry): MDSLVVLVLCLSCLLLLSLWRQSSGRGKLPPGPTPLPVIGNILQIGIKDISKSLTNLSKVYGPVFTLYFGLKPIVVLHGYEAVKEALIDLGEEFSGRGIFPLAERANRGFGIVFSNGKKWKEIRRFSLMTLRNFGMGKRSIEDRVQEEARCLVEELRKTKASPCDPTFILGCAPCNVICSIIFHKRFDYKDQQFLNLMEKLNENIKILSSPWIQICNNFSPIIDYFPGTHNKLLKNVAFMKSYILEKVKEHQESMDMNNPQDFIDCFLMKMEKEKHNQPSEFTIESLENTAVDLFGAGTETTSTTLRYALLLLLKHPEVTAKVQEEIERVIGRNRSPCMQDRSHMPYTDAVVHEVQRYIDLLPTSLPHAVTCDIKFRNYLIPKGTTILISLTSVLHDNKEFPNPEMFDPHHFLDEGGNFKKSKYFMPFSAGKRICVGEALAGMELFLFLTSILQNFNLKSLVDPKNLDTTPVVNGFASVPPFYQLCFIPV
The target of a further data set is Galanin receptor type 3 (Homo sapiens, UniProt O60755). The data set can be described thus: Fluorescence-based cell-based primary high throughput dose response assay to identify antagonists of the Galanin Receptor 3 (GalR3). The class given is functional.
Sequence of Galanin receptor type 3 (O60755 whole entry, the tested form may be a part): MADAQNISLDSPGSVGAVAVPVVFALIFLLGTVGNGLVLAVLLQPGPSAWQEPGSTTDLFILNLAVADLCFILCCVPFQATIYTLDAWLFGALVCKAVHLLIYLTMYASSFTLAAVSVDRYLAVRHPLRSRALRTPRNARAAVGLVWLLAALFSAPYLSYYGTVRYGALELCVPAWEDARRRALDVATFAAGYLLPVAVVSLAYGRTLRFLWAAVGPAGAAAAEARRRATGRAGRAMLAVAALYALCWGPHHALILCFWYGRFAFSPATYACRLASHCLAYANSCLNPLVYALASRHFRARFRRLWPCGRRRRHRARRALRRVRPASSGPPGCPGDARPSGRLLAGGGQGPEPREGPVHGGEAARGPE
A short description of data set [13]: HIV-1 AD8 envelope cell-cell fusion blockers – cherry-pick, dose response (AID 652062).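 Also: luciferase signal from cell-cell fusion driven by HIV-1 clade B AD8 Env; potency is for inhibitors of fusion seen as a drop in luminescence.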 The class given is functional, cell-based.
In data set [14] the target is T7, Corticotropin-releasing factor receptor 2/Corticotropin-releasing factor-binding protein (Homo sapiens, UniProt P24387+Q13324).
T7 sequence (Q13324 whole entry): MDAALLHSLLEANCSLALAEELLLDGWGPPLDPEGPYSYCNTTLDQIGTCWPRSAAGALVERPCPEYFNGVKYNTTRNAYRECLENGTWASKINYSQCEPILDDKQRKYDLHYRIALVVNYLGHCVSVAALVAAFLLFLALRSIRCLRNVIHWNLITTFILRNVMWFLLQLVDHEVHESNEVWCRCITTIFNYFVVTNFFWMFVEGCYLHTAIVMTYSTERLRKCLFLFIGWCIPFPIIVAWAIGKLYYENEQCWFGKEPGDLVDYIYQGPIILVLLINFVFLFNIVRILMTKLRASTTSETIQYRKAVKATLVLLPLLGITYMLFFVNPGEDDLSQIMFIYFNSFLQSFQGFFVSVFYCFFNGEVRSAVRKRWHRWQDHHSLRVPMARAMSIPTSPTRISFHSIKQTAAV
T7 sequence (P24387 whole entry): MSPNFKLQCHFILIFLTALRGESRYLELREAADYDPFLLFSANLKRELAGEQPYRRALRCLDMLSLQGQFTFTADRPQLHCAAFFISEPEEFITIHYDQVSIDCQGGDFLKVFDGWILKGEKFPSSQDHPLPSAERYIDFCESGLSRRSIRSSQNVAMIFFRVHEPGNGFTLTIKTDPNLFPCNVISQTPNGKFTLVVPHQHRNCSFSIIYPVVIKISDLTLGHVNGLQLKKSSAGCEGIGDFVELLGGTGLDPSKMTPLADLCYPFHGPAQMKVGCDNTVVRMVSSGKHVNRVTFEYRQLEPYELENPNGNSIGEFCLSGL
The data set can be described thus: activators of CRF receptor 2 with binding protein – uHTS hits, confirmation (AID 602473). Type of data set: functional. The settings on record: read-out: EC50_Mean.

Data set [15] deals with T7, Corticotropin-releasing factor receptor 2/Corticotropin-releasing factor-binding protein. As to the kind of experiment: Dose Response confirmation of uHTS hits for small molecule antagonists of the CRF-binding protein and CRF-R2 receptor complex. Type of data set: functional. The settings on record: read-out: IC50_Mean.

Activity calls are given as the source filed them. A value given as a limit tells only on which side of the number the result lay.

As to `Cc1nn2c(COc3ccc(NC(=O)c4ccccc4Cl)cc3)nnc2c2ccccc12`, the values for the AC50 in [1] and in data set [3] were 2.59 µM (active) and > 52 µM (inactive), respectively. In addition, the EC50 in data set [2] is 2.06 µM (active); with Streptococcus it was 1.36 µM (active).

As for `C[C@H](CO)N1C[C@H](C)[C@H](CN(C)Cc2ccc(Cl)c(Cl)c2)Oc2c(NC(=O)c3ccncc3)cccc2C1=O`, the AC50 in data set [4] is 39 µM (inactive).

As for `COc1ccc(CN(C)C[C@H]2Oc3c(NC(=O)Nc4ccc(C(F)(F)F)cc4)cccc3C(=O)N([C@@H](C)CO)C[C@@H]2C)cc1`, the AC50 in data set [4] is 14.4 µM (active).

For `Cc1n[nH]c(O)c1C(c1ccc(-c2ccccc2C(=O)O)o1)c1c(C)n[nH]c1O`, the IC50 in [5] is > 128 µM (inactive); in [7] it was 16.4 µM (active); in data set [11] it was > 100 µM (inactive). Besides, the AC50 in data set [6] was 0.335 µM (active); in [8] it was 82.1 µM (active). The EC50 in [9] is 148 µM (active); in data set [10], 37 µM (active); on Protein RecA, 0.256 µM (active).

In the case of `Cc1nn(C)c(Cl)c1NC(=O)OCc1ccc(Cl)cc1Cl`, the figures for the AC50 (in data set [12]; at Cytochrome P450 2C9; in data set [13]) were > 70 µM (inactive), “inconclusive” and 22.5 µM (active), respectively. For the same molecule, the EC50 was > 29.9 µM (inactive) in “cells” and > 53 µM (inactive) in [14]. For the same molecule, the IC50 at Galanin receptor type 3 was 2.13 µM (active); in [15], > 47.1 µM (inactive).

Regarding `COc1cc(NC(=O)c2ccc(-c3csc(C)n3)cc2)c(OC)cc1Cl`, the AC50 in data set [3] is 38.2 µM (active).
